Columns and labels:
[1] = biological target: T1, Sterol regulatory element-binding protein 2 (Homo sapiens, UniProt Q12772); experiment: In Vitro Assay-SREBP-2
T1 sequence (Q12772 whole entry): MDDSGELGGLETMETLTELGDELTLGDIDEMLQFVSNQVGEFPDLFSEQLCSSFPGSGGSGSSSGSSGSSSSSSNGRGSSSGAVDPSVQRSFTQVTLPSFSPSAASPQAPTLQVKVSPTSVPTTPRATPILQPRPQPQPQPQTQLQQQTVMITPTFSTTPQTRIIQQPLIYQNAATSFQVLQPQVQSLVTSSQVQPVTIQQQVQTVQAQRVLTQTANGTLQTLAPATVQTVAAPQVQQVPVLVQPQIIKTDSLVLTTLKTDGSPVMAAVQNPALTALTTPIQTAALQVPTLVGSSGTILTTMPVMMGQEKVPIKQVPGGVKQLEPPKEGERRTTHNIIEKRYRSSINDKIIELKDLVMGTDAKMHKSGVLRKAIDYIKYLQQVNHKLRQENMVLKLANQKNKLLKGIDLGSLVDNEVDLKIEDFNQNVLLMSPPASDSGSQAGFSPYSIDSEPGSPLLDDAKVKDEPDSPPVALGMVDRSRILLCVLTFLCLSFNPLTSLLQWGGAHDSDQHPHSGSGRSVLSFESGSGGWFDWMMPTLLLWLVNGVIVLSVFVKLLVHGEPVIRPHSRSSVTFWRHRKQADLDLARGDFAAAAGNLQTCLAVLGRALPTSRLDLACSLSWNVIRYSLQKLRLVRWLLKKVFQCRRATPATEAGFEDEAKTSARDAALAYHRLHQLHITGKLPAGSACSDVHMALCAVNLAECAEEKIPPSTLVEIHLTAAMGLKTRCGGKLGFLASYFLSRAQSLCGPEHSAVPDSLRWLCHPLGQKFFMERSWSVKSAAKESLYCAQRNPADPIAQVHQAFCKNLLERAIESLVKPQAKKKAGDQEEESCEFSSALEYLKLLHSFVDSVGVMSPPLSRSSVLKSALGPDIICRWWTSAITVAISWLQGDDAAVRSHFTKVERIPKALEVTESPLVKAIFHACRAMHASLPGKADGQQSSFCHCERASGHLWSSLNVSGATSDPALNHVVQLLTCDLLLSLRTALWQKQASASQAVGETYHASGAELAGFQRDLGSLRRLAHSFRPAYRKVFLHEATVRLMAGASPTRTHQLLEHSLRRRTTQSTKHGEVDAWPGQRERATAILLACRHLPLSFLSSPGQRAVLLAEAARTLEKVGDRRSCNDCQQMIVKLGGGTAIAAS
Method: 10,000 cells/well of the PathHunter U2OS SREBP-2 Nuclear Translocation Cell Line are plated in quadruplicate on 384 well plates in 20 μL of AssayComplete cell plating 5 reagent (CP5-high serum) overnight at 37° C./5% CO2. A dilution series of test compound is added to cells, incubated for 1 hour at 37° C./5% CO2, and U18666A (a known SREBP agonist) is added to a final concentration of 10 μM. The plate is incubated overnight (16 hours) at 37° C./5% CO2. PathHunter Flash detection mix is added to the wells, incubated one hour in the dark, and the plate read on an Envision luminometer.

[2] = biological target: T2, Oxysterols receptor LXR-beta (Homo sapiens, UniProt P55055); experiment: In Vitro Assay-LXRβ
T2 sequence (P55055 whole entry): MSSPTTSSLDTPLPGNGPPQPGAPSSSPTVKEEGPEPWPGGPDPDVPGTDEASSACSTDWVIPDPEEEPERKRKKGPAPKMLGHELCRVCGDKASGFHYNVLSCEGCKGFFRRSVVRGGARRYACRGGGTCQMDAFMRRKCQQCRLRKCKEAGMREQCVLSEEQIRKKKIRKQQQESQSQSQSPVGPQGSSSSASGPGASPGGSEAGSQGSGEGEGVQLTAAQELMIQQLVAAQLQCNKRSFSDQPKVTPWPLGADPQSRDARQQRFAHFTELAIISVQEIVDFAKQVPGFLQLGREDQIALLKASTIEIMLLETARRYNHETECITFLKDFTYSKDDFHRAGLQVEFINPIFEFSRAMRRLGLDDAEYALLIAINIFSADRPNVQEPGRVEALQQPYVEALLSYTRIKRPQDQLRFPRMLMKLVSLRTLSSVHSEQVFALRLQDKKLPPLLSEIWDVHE
Method: PathHunter NHR CHO cells stably transfected with tagged full-length human LXRβ and a nuclear fusion protein containing Steroid Receptor Co-activator Peptide (SRCP). The full-length human LXRβ was tagged with the ProLink component of the DiscoverX Enzyme Fragment Complementation (EFC) system and the SRCP domain is fused to the enzyme acceptor component (EA) expressed in the nucleus. Cells were seeded in a total volume of 20 μL into white walled, 384-well microplates and incubated at 37 C. overnight prior to testing. Assay media contained charcoal-dextran filtered serum to reduce the level of hormones present. Final assay vehicle concentration was 1%. […] Microplates were read following signal generation with a PerkinElmer Envision instrument for chemiluminescent signal detection.

IC50 [2]	SMILES	IC50 [1]
–	CCOC(=O)N1CCN(C(=O)CC[C@@H](C)[C@H]2CC[C@H]3[C@@H]4CC=C5C[C@@H](O)CC[C@]5(C)[C@H]4CC[C@]23C)CC1 [US20230340011, Example 422.]	≤ 0.25 µM
–	COC(=O)N1CCN(C(=O)CCC[C@H]2CC[C@H]3[C@@H]4CC=C5C[C@@H](O)CC[C@]5(C)[C@H]4CC[C@]23C)CC1 [US20230340011, Example 421.]	≤ 0.25 µM
–	C[C@H](CCC(=O)N1CCN(C(=O)c2ccnnc2)CC1)[C@H]1CC[C@H]2[C@@H]3CC=C4C[C@@H](O)CC[C@]4(C)[C@H]3CC[C@]12C [US20230340011, Example 389.]	≤ 0.25 µM
in the range around 5.5 µM	Cc1cccc(/C=C/[C@@H](C)[C@H]2CC[C@H]3[C@@H]4CC=C5C[C@@H](O)CC[C@]5(C)[C@H]4CC[C@]23C)n1 [US20230340011, Example 132.]	–

Reference: BindingDB's records for patent US20230340011 (Asteroid Therapeutics, 2023)
